Converted amounts (≈) assume the structure as drawn.
Legend:
[1] = Cytotoxicity against African green monkey Vero cells assessed as reduction in cell viability incubated for 72 hrs by MTT assay; format: toxicity, cell-based; conditions: chlorocebus sabaeus
[2] = Selectivity index, ratio of CC50 for cytotoxicity against African green monkey VERO cells to MIC for antibacterial activity against carbapenem-resistant Acinetobacter baumannii BAA 1605 assessed as inhibition of bacterial growth; format: toxicity, cell-based; conditions: read-out: Selectivity Index
Acinetobacter baumannii [3] = experiment: Antibacterial activity against carbapenem-resistant Acinetobacter baumannii BAA 1605 assessed as inhibition of bacterial growth incubated for 16 to 18 hrs by CLSI protocol based method; format: functional; conditions: time 16-18 hrs
Acinetobacter baumannii [4] = experiment: Antibacterial activity against Acinetobacter baumannii assessed as inhibition of bacterial growth by twofold serial dilution method; format: functional
Acinetobacter baumannii [5] = experiment: Antibacterial activity against multi-drug resistant Acinetobacter baumannii clinical isolate 12 assessed as inhibition of bacterial growth incubated for 16 to 18 hrs by CLSI protocol based method; format: functional; conditions: time 16-18 hrs, read-out: MIC100
Pseudomonas aeruginosa = experiment: Antibacterial activity against Pseudomonas aeruginosa ATCC 27853 assessed as inhibition of bacterial growth incubated for 16 to 18 hrs by CLSI protocol based method; format: functional; conditions: time 16-18 hrs, read-out: MIC100
Acinetobacter baumannii [6] = experiment: Antibacterial activity against multi-drug resistant Acinetobacter baumannii Naval-81 assessed as inhibition of bacterial growth incubated for 16 to 18 hrs by CLSI protocol based method; format: functional; conditions: time 16-18 hrs, read-out: MIC100
Acinetobacter baumannii [7] = experiment: Antibacterial activity against multi-drug resistant Acinetobacter baumannii 5-109 assessed as inhibition of bacterial growth incubated for 16 to 18 hrs by CLSI protocol based method; format: functional; conditions: time 16-18 hrs, read-out: MIC100
Acinetobacter baumannii [8] = experiment: Antibacterial activity against multi-drug resistant Acinetobacter baumannii Naval-18 assessed as inhibition of bacterial growth incubated for 16 to 18 hrs by CLSI protocol based method; format: functional; conditions: time 16-18 hrs, read-out: MIC100
Acinetobacter baumannii [9] = experiment: Antibacterial activity against multi-drug resistant Acinetobacter baumannii clinical isolate 1 assessed as inhibition of bacterial growth incubated for 16 to 18 hrs by CLSI protocol based method; format: functional; conditions: time 16-18 hrs, read-out: MIC100
Acinetobacter baumannii [10] = experiment: Antibacterial activity against multi-drug resistant Acinetobacter baumannii clinical isolate 11 assessed as inhibition of bacterial growth incubated for 16 to 18 hrs by CLSI protocol based method; format: functional; conditions: time 16-18 hrs, read-out: MIC100
Acinetobacter baumannii [11] = experiment: Antibacterial activity against multi-drug resistant Acinetobacter baumannii clinical isolate 9 assessed as inhibition of bacterial growth incubated for 16 to 18 hrs by CLSI protocol based method; format: functional; conditions: time 16-18 hrs, read-out: MIC100
Acinetobacter baumannii [12] = experiment: Antibacterial activity against multi-drug resistant Acinetobacter baumannii clinical isolate 8 assessed as inhibition of bacterial growth incubated for 16 to 18 hrs by CLSI protocol based method; format: functional; conditions: time 16-18 hrs, read-out: MIC100
Acinetobacter baumannii [13] = experiment: Antibacterial activity against multi-drug resistant Acinetobacter baumannii NR-17777 assessed as inhibition of bacterial growth incubated for 16 to 18 hrs by CLSI protocol based method; format: functional; conditions: time 16-18 hrs, read-out: MIC100
Acinetobacter baumannii [14] = experiment: Antibacterial activity against multi-drug resistant Acinetobacter baumannii clinical isolate 3 assessed as inhibition of bacterial growth incubated for 16 to 18 hrs by CLSI protocol based method; format: functional; conditions: time 16-18 hrs, read-out: MIC100
Acinetobacter baumannii [15] = experiment: Antibacterial activity against multi-drug resistant Acinetobacter baumannii clinical isolate 6 assessed as inhibition of bacterial growth incubated for 16 to 18 hrs by CLSI protocol based method; format: functional; conditions: time 16-18 hrs, read-out: MIC100
Acinetobacter baumannii [16] = experiment: Antibacterial activity against multi-drug resistant Acinetobacter baumannii clinical isolate 4 assessed as inhibition of bacterial growth incubated for 16 to 18 hrs by CLSI protocol based method; format: functional; conditions: time 16-18 hrs, read-out: MIC100
Acinetobacter baumannii [17] = experiment: Antibacterial activity against multi-drug resistant Acinetobacter baumannii 5-143 assessed as inhibition of bacterial growth incubated for 16 to 18 hrs by CLSI protocol based method; format: functional; conditions: time 16-18 hrs, read-out: MIC100
Acinetobacter baumannii [18] = experiment: Antibacterial activity against Acinetobacter baumannii ATCC 17978 assessed as inhibition of bacterial growth incubated for 16 to 18 hrs by CLSI protocol based method; format: functional; conditions: time 16-18 hrs, read-out: MIC100
Acinetobacter baumannii [19] = experiment: Antibacterial activity against multi-drug resistant Acinetobacter baumannii clinical isolate 7 assessed as inhibition of bacterial growth incubated for 16 to 18 hrs by CLSI protocol based method; format: functional; conditions: time 16-18 hrs, read-out: MIC100
Acinetobacter baumannii [20] = experiment: Antibacterial activity against multi-drug resistant Acinetobacter baumannii 5-032 assessed as inhibition of bacterial growth incubated for 16 to 18 hrs by CLSI protocol based method; format: functional; conditions: time 16-18 hrs, read-out: MIC100
Acinetobacter baumannii [21] = experiment: Antibacterial activity against multi-drug resistant Acinetobacter baumannii Naval-17 assessed as inhibition of bacterial growth incubated for 16 to 18 hrs by CLSI protocol based method; format: functional; conditions: time 16-18 hrs, read-out: MIC100
Acinetobacter baumannii [22] = experiment: Antibacterial activity against multi-drug resistant Acinetobacter baumannii clinical isolate 10 assessed as inhibition of bacterial growth incubated for 16 to 18 hrs by CLSI protocol based method; format: functional; conditions: time 16-18 hrs, read-out: MIC100
Acinetobacter baumannii [23] = experiment: Antibacterial activity against multi-drug resistant Acinetobacter baumannii H72721 assessed as inhibition of bacterial growth incubated for 16 to 18 hrs by CLSI protocol based method; format: functional; conditions: time 16-18 hrs, read-out: MIC100
Escherichia coli = experiment: Antibacterial activity against Escherichia coli ATCC 25922 assessed as inhibition of bacterial growth incubated for 16 to 18 hrs by CLSI protocol based method; format: functional; conditions: time 16-18 hrs, read-out: MIC100
Acinetobacter baumannii [24] = experiment: Antibacterial activity against multi-drug resistant Acinetobacter baumannii BC-5 assessed as inhibition of bacterial growth incubated for 16 to 18 hrs by CLSI protocol based method; format: functional; conditions: time 16-18 hrs, read-out: MIC100
Acinetobacter baumannii [25] = experiment: Antibacterial activity against multi-drug resistant Acinetobacter baumannii 5-189 assessed as inhibition of bacterial growth incubated for 16 to 18 hrs by CLSI protocol based method; format: functional; conditions: time 16-18 hrs, read-out: MIC100
Acinetobacter baumannii [26] = experiment: Antibacterial activity against multi-drug resistant Acinetobacter baumannii clinical isolate 5 assessed as inhibition of bacterial growth incubated for 16 to 18 hrs by CLSI protocol based method; format: functional; conditions: time 16-18 hrs, read-out: MIC100
Acinetobacter baumannii [27] = experiment: Antibacterial activity against multi-drug resistant Acinetobacter baumannii clinical isolate 2 assessed as inhibition of bacterial growth incubated for 16 to 18 hrs by CLSI protocol based method; format: functional; conditions: time 16-18 hrs, read-out: MIC100
Acinetobacter baumannii [28] = experiment: Antibacterial activity against multi-drug resistant Acinetobacter baumannii WL-487 assessed as inhibition of bacterial growth incubated for 16 to 18 hrs by CLSI protocol based method; format: functional; conditions: time 16-18 hrs, read-out: MIC100
Staphylococcus aureus = experiment: Antibacterial activity against Staphylococcus aureus ATCC 29213 assessed as inhibition of bacterial growth incubated for 16 to 18 hrs by CLSI protocol based method; format: functional; conditions: time 16-18 hrs, read-out: MIC100
Acinetobacter baumannii [29] = experiment: Antibacterial activity against multi-drug resistant Acinetobacter baumannii WL-136 assessed as inhibition of bacterial growth incubated for 16 to 18 hrs by CLSI protocol based method; format: functional; conditions: time 16-18 hrs, read-out: MIC100
Klebsiella pneumoniae = experiment: Antibacterial activity against Klebsiella pneumoniae BAA 1705 assessed as inhibition of bacterial growth incubated for 16 to 18 hrs by CLSI protocol based method; format: functional; conditions: time 16-18 hrs, read-out: MIC100

| Compound | CC50 at 72 h [1] [µg/mL] | selectivity ratio [2] | MIC (Acinetobacter baumannii [5]) [µg/mL] | MIC (Acinetobacter baumannii [8]) [µg/mL] | MIC (Acinetobacter baumannii [9]) [µg/mL] | MIC (Acinetobacter baumannii [10]) [µg/mL] | MIC (Acinetobacter baumannii [11]) [µg/mL] | MIC (Acinetobacter baumannii [12]) [µg/mL] | MIC (Acinetobacter baumannii [14]) [µg/mL] | MIC (Acinetobacter baumannii [15]) [µg/mL] | MIC (Acinetobacter baumannii [16]) [µg/mL] | MIC (Acinetobacter baumannii [17]) [µg/mL] | MIC (Acinetobacter baumannii [18]) [µg/mL] | MIC (Acinetobacter baumannii [20]) [µg/mL] | MIC (Acinetobacter baumannii [21]) [µg/mL] | MIC (Acinetobacter baumannii [22]) [µg/mL] | MIC (Acinetobacter baumannii [27]) [µg/mL] | MIC (Acinetobacter baumannii [28]) [µg/mL] | MIC (Staphylococcus aureus) [µg/mL] | MIC (Acinetobacter baumannii [3]; read-out: MIC100) [µg/mL] | also measured |
| --- | --- | --- | --- | --- | --- | --- | --- | --- | --- | --- | --- | --- | --- | --- | --- | --- | --- | --- | --- | --- | --- |
| COc1cccc2c1C(=O)c1c(O)c3c(c(O)c1C2=O)C[C@@](O)(C(=O)CO)C[C@@H]3O[C@H]1C[C@H](N)[C@H](O)[C@H](C)O1 [DOXORUBICIN] | < 10 | < 1 |  |  |  |  |  |  |  |  |  |  |  |  |  |  |  |  |  |  | MIC (Acinetobacter baumannii [3]; read-out: MIC): > 64 µg/mL |
| CCCCCCCCCCN1CCN(c2ccc3c4c(cccc24)C(=O)N(CC(O)Cn2c([N+](=O)[O-])cnc2C)C3=O)CC1 (stereo not drawn) |  |  |  |  |  |  |  |  |  |  |  |  |  |  |  |  |  |  |  |  | MIC (Acinetobacter baumannii [4]): 13 µM (≈ 7.86 µg/mL) |
| N#Cc1ccc(NNC(=O)CCN2C(=O)c3cccc4cccc(c34)C2=O)cc1 | > 100 | > 200 | 2 (≈ 5.2 µM) | 2 (≈ 5.2 µM) | 1 (≈ 2.6 µM) | 2 (≈ 5.2 µM) | 2 (≈ 5.2 µM) | 2 (≈ 5.2 µM) | 1 (≈ 2.6 µM) | 4 (≈ 10.4 µM) | 2 (≈ 5.2 µM) | 1 (≈ 2.6 µM) | 2 (≈ 5.2 µM) | 2 (≈ 5.2 µM) | 2 (≈ 5.2 µM) | 8 (≈ 20.8 µM) | 2 (≈ 5.2 µM) | 4 (≈ 10.4 µM) | > 64 | 0.5 (≈ 1.3 µM) | MIC (Pseudomonas aeruginosa): > 64 µg/mL; MIC (Acinetobacter baumannii [6]): 2 µg/mL (≈ 5.2 µM); MIC (Acinetobacter baumannii [7]): 2 µg/mL (≈ 5.2 µM); MIC (Acinetobacter baumannii [13]): 2 µg/mL (≈ 5.2 µM); MIC (Acinetobacter baumannii [19]): 1 µg/mL (≈ 2.6 µM); MIC (Acinetobacter baumannii [23]): 2 µg/mL (≈ 5.2 µM); MIC (Escherichia coli): > 64 µg/mL; MIC (Acinetobacter baumannii [24]): 2 µg/mL (≈ 5.2 µM); MIC (Acinetobacter baumannii [25]): 4 µg/mL (≈ 10.4 µM); MIC (Acinetobacter baumannii [26]): 4 µg/mL (≈ 10.4 µM); MIC (Acinetobacter baumannii [29]): 2 µg/mL (≈ 5.2 µM); MIC (Klebsiella pneumoniae): > 64 µg/mL |
| O=C(CCN1C(=O)c2cccc3cccc(c23)C1=O)NNc1ccc(F)cc1 | 80 (≈ 212 µM) | 80 | 2 (≈ 5.3 µM) | 2 (≈ 5.3 µM) | 2 (≈ 5.3 µM) | 2 (≈ 5.3 µM) | 2 (≈ 5.3 µM) | 2 (≈ 5.3 µM) | 0.5 (≈ 1.32 µM) | 4 (≈ 10.6 µM) | 2 (≈ 5.3 µM) | 2 (≈ 5.3 µM) | 1 (≈ 2.65 µM) | 4 (≈ 10.6 µM) | 2 (≈ 5.3 µM) | 2 (≈ 5.3 µM) | 2 (≈ 5.3 µM) | 1 (≈ 2.65 µM) | > 64 | 1 (≈ 2.65 µM) | MIC (Pseudomonas aeruginosa): > 64 µg/mL; MIC (Acinetobacter baumannii [6]): 2 µg/mL (≈ 5.3 µM); MIC (Acinetobacter baumannii [7]): 4 µg/mL (≈ 10.6 µM); MIC (Acinetobacter baumannii [13]): 4 µg/mL (≈ 10.6 µM); MIC (Acinetobacter baumannii [19]): 2 µg/mL (≈ 5.3 µM); MIC (Acinetobacter baumannii [23]): 2 µg/mL (≈ 5.3 µM); MIC (Escherichia coli): > 64 µg/mL; MIC (Acinetobacter baumannii [24]): 1 µg/mL (≈ 2.65 µM); MIC (Acinetobacter baumannii [25]): 4 µg/mL (≈ 10.6 µM); MIC (Acinetobacter baumannii [26]): 4 µg/mL (≈ 10.6 µM); MIC (Acinetobacter baumannii [29]): 2 µg/mL (≈ 5.3 µM); MIC (Klebsiella pneumoniae): > 64 µg/mL |
| C[C@H]1COc2c(N3CCN(C)CC3)c(F)cc3c(=O)c(C(=O)O)cn1c23 [LEVOFLOXACIN ANHYDROUS] | > 400 |  | 4 (≈ 11.1 µM) | 4 (≈ 11.1 µM) | 32 (≈ 88.6 µM) | 64 (≈ 177 µM) | 4 (≈ 11.1 µM) | 4 (≈ 11.1 µM) | 64 (≈ 177 µM) | 4 (≈ 11.1 µM) | > 64 | 1 (≈ 2.77 µM) | 0.03 (≈ 0.083 µM) | 0.25 (≈ 0.692 µM) | 16 (≈ 44.3 µM) | > 64 | > 64 | 0.125 (≈ 0.346 µM) | 0.25 (≈ 0.692 µM) | 4 (≈ 11.1 µM) | MIC (Acinetobacter baumannii [29]): 0.25 µg/mL (≈ 0.692 µM) |
